Measurements as given in patent publication US9012397B2 (priority 2011, dated 2015).
Where two headings read alike, the source gives them in different places.

Key:
Format in all cases: in vivo, human
flea bites = test system: flea bites
Method: (§1) The method of the invention has been carried out with respect to a number of skin disorders. The patients were treated with one of two peptides, each at a concentration of 50 μg/gr cream (unless otherwise indicated):
(§2) The cream was manufactured by Amiga LTD, Israel, and contains the following components:
1. person two was bitten by fleas on various occasions, resulting in an itching sensation. […] The ointment was reapplied after 6 hours.
2. person one who is very sensitive to flea bites was bitten by fleas, resulting in an itching sensation. […] The ointment should be reapplied after 12 hours.

itching = details: person
Method: as §1, §2
1. A person suffered from a strong itching sensation on the skin all over the body for no apparent reason.
2. A person suffered from a red rash and itching sensation on their breast. ZEP4 (500 μg/gr cream) was applied twice in a period of 2 hours. • Results: relief from itching within 10 minutes.
3. A person suffered from a strong itching sensation in the lower limbs which sometimes spread to the abdomen and back. […] I. Skin Infection

bee stings = details: both hands stung, 500 μg/gr cream once to the other hand, about 10 minutes after sting
Method: as §1, §2
3. A person was stung by a bee.
4. person four was stung by bees on both hands.
5. person three was stung by bees on both hands.

pGLU-ASN-TRP-LYS-C8 [ZEP3]
clinical outcome (flea bites; person one very sensitive to flea bites, 50 μg/gr cream): almost immediate cessation of the itching sensation
clinical outcome (flea bites; person two, 50 μg/gr cream several times to bite location): immediate cessation of the itching sensation
clinical outcome (itching; strong itching all over the body, 500 μg/gr cream a number of times): immediate relief from itching, which ceased
clinical outcome (itching; strong itching in lower limbs, 500 μg/gr cream as needed): immediate relief
clinical outcome (bee stings; person four): the swelling shrunk and the redness decreased to an identical degree on each hand
clinical outcome (bee stings; person three): the swelling shrunk and the redness decreased to an identical degree on each hand
